Assay results reported in article PMC8580996, “2-Oxoglutarate derivatives can selectively enhance or inhibit the activity of human oxygenases” (Nature Communications, 2021).
Where “and” joins values, the source holds several entries; their conditions need not be identical. Identical values can stand only once. Blank lines part the entries; values can stand above or below the compound they belong to.

Key:
AspH [1] = biological target: T1, AspH (Homo sapiens, UniProt Q12797); design: method as in PMID 34163896; details: hFX-CP101–119 substrate, 330 μM 2OG or 2OG derivative, t = 15 min; cited from earlier work
T1 construct: the tetratricopeptide repeat domain (His6-AspH315-758), was produced and purified as previously reported; made in house
T1 sequence (Q12797 315-758): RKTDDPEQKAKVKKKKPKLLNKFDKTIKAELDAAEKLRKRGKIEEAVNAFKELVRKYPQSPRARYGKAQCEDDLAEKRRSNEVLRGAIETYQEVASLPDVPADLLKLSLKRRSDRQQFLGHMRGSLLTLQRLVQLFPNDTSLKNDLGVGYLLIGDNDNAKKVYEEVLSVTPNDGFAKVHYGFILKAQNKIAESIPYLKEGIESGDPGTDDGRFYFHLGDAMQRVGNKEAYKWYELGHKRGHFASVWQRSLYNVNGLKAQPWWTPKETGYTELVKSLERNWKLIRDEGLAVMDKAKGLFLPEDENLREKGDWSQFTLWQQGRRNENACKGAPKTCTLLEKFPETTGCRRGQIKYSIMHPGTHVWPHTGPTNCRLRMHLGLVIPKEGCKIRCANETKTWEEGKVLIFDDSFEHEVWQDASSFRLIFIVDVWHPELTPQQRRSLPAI

AspH [2] = biological target: T1, AspH; details: 0.05 μM AspH, 1.0 μM hFX-CP101-119, 3.0 μM 2OG, ref 21 (supplementary ref 1); cited from earlier work
FIH = FIH (Homo sapiens, UniProt Q9NWT6); experiment: Competition assay in a single reaction vessel, FIH-catalyzed hydroxylation (SPE-MS); format: biochemical
Chain of FIH (Q9NWT6 whole entry): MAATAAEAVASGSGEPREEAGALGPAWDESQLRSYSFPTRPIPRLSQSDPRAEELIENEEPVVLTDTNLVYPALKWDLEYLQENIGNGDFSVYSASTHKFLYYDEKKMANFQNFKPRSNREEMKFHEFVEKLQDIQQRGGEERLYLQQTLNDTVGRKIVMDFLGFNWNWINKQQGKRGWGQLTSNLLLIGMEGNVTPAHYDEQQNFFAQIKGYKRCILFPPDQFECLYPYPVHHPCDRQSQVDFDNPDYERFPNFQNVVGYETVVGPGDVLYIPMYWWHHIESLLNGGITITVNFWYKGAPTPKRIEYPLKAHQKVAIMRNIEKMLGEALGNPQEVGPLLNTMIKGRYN
Procedure: Mean of three independent runs (n = 3; mean ± SD). […] Cosubstrates: a 20 μM 2OG; b 20 μM 2OG; c 20 μM 1; d 20 μM 12; e 20 μM 12 and 100 μM 2OG; f 100 μM 14. Source data are provided as a Source Data file.
Mean of three independent runs (n = 3; mean ± SD). […] Source data are provided as a Source Data file.
Peptide turnover was monitored by SPE-MS using the same instrument configuration (with the exception that the peptides were eluted from the SPE cartridge with 0.1%v/v aqueous formic acid in 80/20 v/v acetonitrile/water) as described above.
FIH and AspH-catalyzed peptide hydroxylations were analyzed simultaneously using SPE-MS as described in the
Methods section; competition experiments were performed in the same reaction vessel using equimolar 2OG
oxygenase and substrate concentrations. […]
Source data are provided as a Source Data file.
FIH and AspH-catalyzed peptide hydroxylations were analyzed simultaneously using SPE-
MS as described in the Methods section; competition experiments were performed in the same reaction vessel
using equimolar 2OG oxygenase and substrate concentrations. […]
2OG, 100 μM 14. Source data are provided as a Source Data file.

Structure (SMILES): O=C(O)C(=O)C1CCC(C(=O)O)C1 (stereo not shown) [compound 22, 3-(carboxycarbonyl)cyclopentane-1-carboxylic acid]
AspH activity, %-substrate conversion (AspH [1]): ~15%
IC50 (AspH [2]): 5 µM

Structure (SMILES): CCC(CC(=O)C(=O)O)C(=O)O (stereo not shown) [compound 14, 4-ethyl-2OG]
AspH activity, %-substrate conversion (AspH [1]): <1%

substrate hydroxylation (% conversion) (FIH; Fig 2a, 20 μM 2OG, CA1-20, 0 min): 14.1515 and 16.7791 and 11.5447
substrate hydroxylation (% conversion) (FIH; Fig 2a, 20 μM 2OG, CA1-20, 0.703167 min): 47.9481 and 47.8258 and 38.5441
substrate hydroxylation (% conversion) (FIH; Fig 2a, 20 μM 2OG, CA1-20, 2.10933 min): 78.9866 and 77.8293 and 70.1307
substrate hydroxylation (% conversion) (FIH; Fig 2a, 20 μM 2OG, CA1-20, 2.8135 min): 85.5974 and 84.4447 and 78.5645
substrate hydroxylation (% conversion) (FIH; Fig 2a, 20 μM 2OG, CA1-20, 3.51633 min): 89.6698 and 89.0396 and 84.1833
substrate hydroxylation (% conversion) (FIH; Fig 2a, 20 μM 2OG, CA1-20, 4.22 min): 92.631 and 91.777 and 88.07
substrate hydroxylation (% conversion) (FIH; Fig 2a, 20 μM 2OG, CA1-20, 4.92317 min): 94.369 and 93.7454 and 90.6935
substrate hydroxylation (% conversion) (FIH; Fig 2a, 20 μM 2OG, CA1-20, 5.62833 min): 95.7579 and 95.0911 and 92.7125
substrate hydroxylation (% conversion) (FIH; Fig 2a, 20 μM 2OG, CA1-20, 6.33133 min): 97.057 and 96.0828 and 94.1188
substrate hydroxylation (% conversion) (FIH; Fig 2a, 20 μM 2OG, CA1-20, 7.03583 min): 97.7828 and 96.6689 and 95.1866
substrate hydroxylation (% conversion) (FIH; Fig 2a, 20 μM 2OG, CA1-20, 7.73917 min): 98.8257 and 97.1902 and 95.7428
substrate hydroxylation (% conversion) (FIH; Fig 2a, 20 μM 2OG, CA1-20, 8.444 min): 99.4037 and 97.3768 and 96.3319
substrate hydroxylation (% conversion) (FIH; Fig 2a, 20 μM 2OG, CA1-20, 9.1485 min): 99.7225 and 97.4249 and 96.6951
substrate hydroxylation (% conversion) (FIH; Fig 2a, 20 μM 2OG, CA1-20, 9.853 min): 99.5637 and 97.3528 and 97.1366
substrate hydroxylation (% conversion) (FIH; Fig 2a, 20 μM 2OG, CA1-20, 10.558 min): 100 and 97.2891 and 96.8671
substrate hydroxylation (% conversion) (FIH; Fig 2a, 20 μM 2OG, CA1-20, 11.2623 min): 100 and 94.1661
substrate hydroxylation (% conversion) (FIH; Fig 2a, 20 μM 2OG, HIF-1a788-822, 0.703167 min): 6.1581 and 8.558 and 6.1761
substrate hydroxylation (% conversion) (FIH; Fig 2a, 20 μM 2OG, HIF-1a788-822, 2.10933 min): 16.8685 and 19.2149 and 14.7272
substrate hydroxylation (% conversion) (FIH; Fig 2a, 20 μM 2OG, HIF-1a788-822, 2.8135 min): 22.0351 and 24.2966 and 18.9489
substrate hydroxylation (% conversion) (FIH; Fig 2a, 20 μM 2OG, HIF-1a788-822, 3.51633 min): 26.9176 and 28.8009 and 23.0891
substrate hydroxylation (% conversion) (FIH; Fig 2a, 20 μM 2OG, HIF-1a788-822, 4.22 min): 30.085 and 33.3713 and 26.7919
substrate hydroxylation (% conversion) (FIH; Fig 2a, 20 μM 2OG, HIF-1a788-822, 4.92317 min): 34.7093 and 37.5052 and 30.4684
substrate hydroxylation (% conversion) (FIH; Fig 2a, 20 μM 2OG, HIF-1a788-822, 5.62833 min): 37.941 and 41.581 and 34.0768
substrate hydroxylation (% conversion) (FIH; Fig 2a, 20 μM 2OG, HIF-1a788-822, 6.33133 min): 40.9748 and 45.5421 and 37.689
substrate hydroxylation (% conversion) (FIH; Fig 2a, 20 μM 2OG, HIF-1a788-822, 7.03583 min): 44.2421 and 48.7776 and 41.0727
substrate hydroxylation (% conversion) (FIH; Fig 2a, 20 μM 2OG, HIF-1a788-822, 7.73917 min): 46.5287 and 52.1147 and 44.2887
substrate hydroxylation (% conversion) (FIH; Fig 2a, 20 μM 2OG, HIF-1a788-822, 8.444 min): 50.2071 and 55.1688 and 46.8395
substrate hydroxylation (% conversion) (FIH; Fig 2a, 20 μM 2OG, HIF-1a788-822, 9.1485 min): 52.5573 and 57.8623 and 50.003
substrate hydroxylation (% conversion) (FIH; Fig 2a, 20 μM 2OG, HIF-1a788-822, 9.853 min): 55.5664 and 60.5077 and 52.8227
substrate hydroxylation (% conversion) (FIH; Fig 2a, 20 μM 2OG, HIF-1a788-822, 10.558 min): 57.4116 and 62.9095 and 55.0617
substrate hydroxylation (% conversion) (FIH; Fig 2a, 20 μM 2OG, HIF-1a788-822, 11.2623 min): 59.0832 and 64.3072 and 56.3348
conversion of CA1–20 (FIH; Fig 2a, 20 μM 2OG, both FIH substrates in one vessel, after 5 min): > 90%
conversion of HIF-1α788–822 (FIH; Fig 2a, 20 μM 2OG, both FIH substrates in one vessel, after 12 min): ~ 60%
substrate hydroxylation (% conversion) (FIH; Fig 2b, 20 μM 2OG, FIH, 1.19933 min): 58.5759 and 53.8983
FIH-catalyzed CA1–20 hydroxylation (FIH; Fig 2b, 20 μM 2OG, after 4 min): > 80%
FIH-catalyzed substrate turnover (FIH; Fig 4a, 0.5 mM 2OG, absence of 13, after 4 min): ~ 80%
Structure (SMILES): O=C(O)CCC(=O)C(=O)O [2OG, 2-Oxoglutarate]

Structure (SMILES): O=C(O)C(=O)CC(CCCc1ccccc1)C(=O)O (stereo not shown) [compound 18, 4-(3-phenylpropyl)-2OG]
AspH activity, %-substrate conversion (AspH [1]): <1%
